Results on 16 molecules are retold here after US12473291B2 (priority 2019, dated 2025).

The structures appear in SMILES notation. Like-named read-outs stand apart in the source and are kept apart here.

Test [1] deals with SD rats. Description: animal or person. It counts as in vivo. Conditions: for ED50: SD rats (male, 220-300 g), injection via the tail vein, disappearance of righting reflex; for 2ED50 duration / 2ED50 recovery time / Quality of recovery: SD rats; for 2ED50 duration / 2ED50 recovery time: single tail vein injection at 2×ED50; for 2ED50 duration: time from disappearance to recovery of righting reflex; for 2ED50 recovery time: time from recovery of righting reflex to free crawling; for Quality of recovery: tail vein injection; for duration and recovery time compared with remimazolam / effective dose compared with remimazolam: rats, tail vein, in words.

The subject of test [2] is KM mice. The test is described as follows: animal or person. It is filed as in vivo. To be noted: for ED50: KM mice (male, 18-22 g), injection via the tail vein, disappearance of righting reflex; for 2ED50 duration / 2ED50 recovery time / Quality of recovery: KM mice; for 2ED50 duration / 2ED50 recovery time: single tail vein injection at 2×ED50; for 2ED50 duration: time from disappearance to recovery of righting reflex; for 2ED50 recovery time: time from recovery of righting reflex to free crawling; for Quality of recovery: tail vein injection; for duration and recovery time compared with remimazolam / effective dose compared with remimazolam: mice, tail vein, in words.

Setting [3] is: Rattus norvegicus, read-out: ED50.

With `CCOC(=O)COC(=O)CC[C@@H]1N=C(c2ccccn2)c2cc(Cl)ccc2-n2c(C)cnc21` [Example 38], in test [1], the ED50 came to 6.5 mg/kg, the “2ED50 duration” value stood at 4.05 min, the 2ED50 recovery time came to 2.55 min and the Quality of recovery entry was “++++ (“++++” means 5-10 min)”. In addition, in test [2], the ED50 worked out at 25 mg/kg, the 2ED50 duration stood at 3.25 min, the 2ED50 recovery time turned out to be 1.25 min and the Quality of recovery entry is “++ (“++” means 1-3 min)”.
In the case of `COC(=O)C1(OC(=O)CC[C@@H]2N=C(c3ccccn3)c3c(Cl)cc(C(F)(F)F)cc3-n3c(C)cnc32)CC1` [Example 39], the ED50 in test [1] (setting [3]) came to 6.7 mg/kg. For the same molecule, in test [1], the “2ED50 duration” value stood at 4.03 min, the 2ED50 recovery time was found to be 2.48 min and the Quality of recovery entry is “++ (“++” means 1-3 min)”. Moreover, in test [2], the 2ED50 duration amounted to 5.09 min, the 2ED50 recovery time came out at 2.28 min and the Quality of recovery result is “+++ (“+++” means 3-5 min)”. Moreover, in test [2] (Mus musculus, read-out: ED50), the ED50 amounted to 26.7 mg/kg.
As for `COC(=O)C1(OC(=O)CC[C@@H]2N=C(c3ccccn3)c3cc(Cl)c(C(F)(F)F)cc3-n3c(C)cnc32)CC1` [Example 40], in test [1], the ED50 is listed as 6.8 mg/kg, the “2ED50 duration” value is on record as 4.06 min, the 2ED50 recovery time was 2.01 min and the Quality of recovery result was “++ (“++” means 1-3 min)”. Also, in test [2], the ED50 amounted to 24.8 mg/kg, the 2ED50 duration came out at 4.26 min, the 2ED50 recovery time amounted to 1.55 min and the Quality of recovery entry is listed as “++ (“++” means 1-3 min)”.
Take `COC(=O)C1(OC(=O)CC[C@@H]2N=C(c3ccccn3)c3ccc(C(F)(F)F)c(Cl)c3-n3c(C)cnc32)CC1` [Example 41]: the median effective dose (ED50) in test [1] (setting [3]) was 5.9 mg/kg. Besides, in test [1], the “2ED50 duration” value is given as 3.43 min, the 2ED50 recovery time came out at 2.47 min and the Quality of recovery result is on record as “++ (“++” means 1-3 min)”. Moreover, in test [2], the 2ED50 duration was determined as 3.53 min, the 2ED50 recovery time is listed as 1.57 min and the Quality of recovery entry is “++ (“++” means 1-3 min)”. Moreover, in test [2] (Mus musculus, read-out: ED50), the ED50 amounted to 28.9 mg/kg.
For the molecule `CC(=O)O.COC(=O)C1(OC(=O)CC[C@@H]2N=C(c3ccccn3)c3cc(Cl)c(OC(F)(F)F)cc3-n3c(C)cnc32)CC1` [Example 42], in test [1], the ED50 is 4.7 mg/kg, the “2ED50 duration” value amounted to 0.51 min, the 2ED50 recovery time is given as 0.31 min and the Quality of recovery result is reported as “+ (“+” means <1 min)”. In addition, in test [1], the “duration and recovery time compared with remimazolam” value is “significantly shorter”; the “effective dose compared with remimazolam” value is reported as “significantly lower”. Further, in test [2], the ED50 turned out to be 8.7 mg/kg, the 2ED50 duration amounted to 0.58 min, the 2ED50 recovery time turned out to be 0.53 min and the Quality of recovery result is on record as “+ (“+” means <1 mm)”. Besides, in test [2], the “duration and recovery time compared with remimazolam” value is “significantly shorter”; the “effective dose compared with remimazolam” value was “significantly lower”.
Regarding `COC(=O)C1(OC(=O)CC[C@@H]2N=C(c3ccccn3)c3c(Cl)cc(OC(F)(F)F)cc3-n3c(C)cnc32)CC1.O=C(O)O` [Example 43], in test [1], the ED50 was 6.5 mg/kg, the “2ED50 duration” value is recorded as 3.01 min, the 2ED50 recovery time was found to be 2.41 min and the Quality of recovery entry is “++ (“++” means 1-3 min)”. In test [2], the ED50 was 29.5 mg/kg, the 2ED50 duration came to 6.01 min, the 2ED50 recovery time was found to be 2.13 min and the Quality of recovery result is “++++ (“++++” means 5-10 min)”.
With `COC(=O)C1(OC(=O)CC[C@@H]2N=C(c3ccccn3)c3cc(Cl)c(Br)cc3-n3c(C)cnc32)CC1` [Example 45], the median effective dose (ED50) in test [1] (setting [3]) was 7.1 mg/kg; in test [2] (Mus musculus, read-out: ED50), 30 mg/kg. Further, the entries for the “2ED50 duration” value in test [1] and in test [2] were 3.01 min and 2.20 min, respectively. The 2ED50 recovery time in test [1] was found to be 2.00 min; in test [2], 1.53 min. For the same molecule, the Quality of recovery entry in test [1] is “++ (“++” means 1-3 min)”; in test [2] it was “++++ (“++++” means 5-10 min)”.
As to `COC(=O)C1(OC(=O)CC[C@@H]2N=C(c3ccccn3)c3cc(Cl)c(Cl)c(Cl)c3-n3c(C)cnc32)CC1` [Example 46], the ED50 in test [1] (setting [3]) turned out to be 6.3 mg/kg. Further, in test [1], the “2ED50 duration” value stood at 3.17 min; the 2ED50 recovery time is given as 2.28 min; the Quality of recovery result is recorded as “+ (“+” means <1 min)”; the “duration and recovery time compared with remimazolam” value was “significantly shorter”. Further, the “effective dose compared with remimazolam” value in test [1] is on record as “significantly lower”. In test [2], the 2ED50 duration amounted to 1.21 min, the 2ED50 recovery time came out at 1.08 min and the Quality of recovery result is on record as “+++ (“+++” means 3-5 min)”. The ED50 in test [2] (Mus musculus, read-out: ED50) was determined as 32 mg/kg.
As for `CCCOC(=O)OCOC(=O)CC[C@@H]1N=C(c2ccccn2)c2cc(Br)ccc2-n2c(C)cnc21` [Example 47], in test [1] (setting [3]), the ED50 amounted to 6.2 mg/kg. In addition, in test [1], the “2ED50 duration” value is reported as 4.07 min, the 2ED50 recovery time amounted to 2.38 min and the Quality of recovery entry is “++ (“++” means 1-3 min)”. Moreover, in test [2], the 2ED50 duration was 3.90 min, the 2ED50 recovery time is given as 2.42 min and the Quality of recovery entry is “++++ (“++++” means 5-10 min)”. The ED50 in test [2] (Mus musculus, read-out: ED50) was 27 mg/kg.
`Cc1cnc2n1-c1ccc(Br)cc1C(c1ccccn1)=N[C@H]2CCC(=O)OCOC(=O)OC(C)C` [Example 48]: the ED50 in test [1] (setting [3]) was 5.3 mg/kg. Also, in test [1], the “2ED50 duration” value stood at 4.16 min, the 2ED50 recovery time is recorded as 2.42 min and the Quality of recovery entry is “+++ (“+++” means 3-5 min)”. In test [2], the 2ED50 duration worked out at 8.56 min, the 2ED50 recovery time is 2.48 min and the Quality of recovery entry is on record as “++++ (“++++” means 5-10 min)”. Further, the median effective dose (ED50) in test [2] (Mus musculus, read-out: ED50) is 27 mg/kg.
Consider `Cc1cnc2n1-c1ccc(Br)cc1C(c1ccccn1)=N[C@H]2CCC(=O)OCOC(=O)OC(C)(C)C` [Example 49], for which the ED50 in test [1] (setting [3]) was 5 mg/kg. For the same molecule, in test [1], the “2ED50 duration” value is 1.24 min; the 2ED50 recovery time is 2.01 min; the Quality of recovery result is reported as “+ (“+” means <1 min)”; the “duration and recovery time compared with remimazolam” value was “significantly shorter”. The “effective dose compared with remimazolam” value in test [1] is reported as “significantly lower”. Besides, in test [2], the 2ED50 duration was 2.65 min; the 2ED50 recovery time turned out to be 1.22 min; the “duration and recovery time compared with remimazolam” value is given as “significantly shorter”; the “effective dose compared with remimazolam” value is given as “significantly lower”. Also, the ED50 in test [2] (Mus musculus, read-out: ED50) was 20 mg/kg.
In the case of `CCC(CC)OC(=O)OCOC(=O)CC[C@@H]1N=C(c2ccccn2)c2cc(Br)ccc2-n2c(C)cnc21` [Example 50], the ED50 in test [1] (setting [3]) was found to be 6.3 mg/kg. In test [1], the “2ED50 duration” value is 3.56 min, the 2ED50 recovery time was 2.41 min and the Quality of recovery entry is recorded as “++ (“++” means 1-3 min)”. In addition, in test [2], the 2ED50 duration was 7.84 min, the 2ED50 recovery time worked out at 1.47 min and the Quality of recovery entry was “++ (“++” means 1-3 min)”. Besides, the ED50 in test [2] (Mus musculus, read-out: ED50) was determined as 24.6 mg/kg.
In the case of `Cc1cnc2n1-c1ccc(Br)cc1C(c1ccccn1)=N[C@H]2CCC(=O)OCOC(=O)OC(C)C(C)C` (some centres unmarked) [Example 51], the ED50 in test [1] (setting [3]) amounted to 6.5 mg/kg. Besides, in test [1], the “2ED50 duration” value is on record as 3.09 min, the 2ED50 recovery time stood at 2.32 min and the Quality of recovery entry is “+++ (“+++” means 3-5 min)”. For the same molecule, in test [2], the 2ED50 duration is given as above 10 min, the 2ED50 recovery time was determined as 2.39 min and the Quality of recovery result is “+++ (“+++” means 3-5 min)”. For the same molecule, the ED50 in test [2] (Mus musculus, read-out: ED50) is 27.8 mg/kg.
`Cc1cnc2n1-c1ccc(Br)cc1C(c1ccccn1)=N[C@H]2CCC(=O)OCOC(=O)OC(C(C)C)C(C)C` [Example 52]: the ED50 in test [1] (setting [3]) is 6.8 mg/kg. Also, in test [1], the “2ED50 duration” value was determined as 4.03 min, the 2ED50 recovery time amounted to 2.41 min and the Quality of recovery entry was “++ (“++” means 1-3 min)”. For the same molecule, in test [2], the 2ED50 duration is on record as above 10 min, the 2ED50 recovery time was determined as 1.49 min and the Quality of recovery result is “++++ (“++++” means 5-10 min)”. The 50% effective dose (ED50) in test [2] (Mus musculus, read-out: ED50) was 32 mg/kg.
On to `COC(=O)OC(C)OC(=O)CC[C@@H]1N=C(c2ccccn2)c2cc(Br)ccc2-n2c(C)cnc21` (some centres unmarked) [Example 53], for which, in test [1] (setting [3]), the ED50 worked out at 6 mg/kg. Also, in test [1], the “2ED50 duration” value turned out to be 3.18 min; the 2ED50 recovery time was determined as 2.47 min; the Quality of recovery result is given as “++ (“++” means 1-3 min)”; the “duration and recovery time compared with remimazolam” value is recorded as “significantly shorter”. The “effective dose compared with remimazolam” value in test [1] was “significantly lower”. Further, in test [2], the 2ED50 duration stood at 3.61 min; the 2ED50 recovery time was 2.41 min; the “duration and recovery time compared with remimazolam” value was “significantly shorter”; the “effective dose compared with remimazolam” value was “significantly lower”. Also, in test [2] (Mus musculus, read-out: ED50), the ED50 is 25.7 mg/kg.
With `CCOC(=O)OC(C)OC(=O)CC[C@@H]1N=C(c2ccccn2)c2cc(Br)ccc2-n2c(C)cnc21` (some centres unmarked) [Example 54], in test [1] (setting [3]), the ED50 was determined as 6.4 mg/kg. Also, in test [1], the “2ED50 duration” value was determined as 3.22 min; the 2ED50 recovery time amounted to 2.52 min; the Quality of recovery entry is “+++ (“+++” means 3-5 min)”; the “duration and recovery time compared with remimazolam” value is “significantly shorter”. Besides, in test [1], the “effective dose compared with remimazolam” value was “significantly lower”. In test [2], the 2ED50 duration is 8.52 min; the 2ED50 recovery time was 1.56 min; the “duration and recovery time compared with remimazolam” value is recorded as “significantly shorter”; the “effective dose compared with remimazolam” value is recorded as “significantly lower”. In test [2] (Mus musculus, read-out: ED50), the ED50 amounted to 25 mg/kg.
